How the values were obtained:
LexA-AHR chimera = biological target: T1, LexA-AHR chimera (Mus musculus, UniProt P30561); experiment: LexA-AHR chimera / LexA-operator β-galactosidase reporter dose-response in yeast strain L40; type: cell-based
T1 construct: expressed in transfected cells; host or cells: Saccharomyces cerevisiae strain L40; the other entry of the earlier key: lexA (P0A7C2, LexA repressor)
Experimental: (§1) Pharmacology in yeast: AHR dose-response curves were performed in the S. cerevisiae strain L40 as described previously (Carver et al., 1994, supra). Two days after plasmid transformation, the colonies were replica plated on media with various concentrations of βNF spread on the surface. The replica plates were then incubated for two days at 30° C. For each dose of βNF, three colonies were suspended in 100 μl of Z-buffer (60 mM Na2HPO4, 40 mM NaH2PO4, 10 mM KCl, 1 MM MgSO4, 35 mM 2-mercaptoethanol) and cell density was estimated by reading the A600. Twenty microliters of the remaining cell suspension was added to 130 μl Z-buffer, 25 μl 0.1%SDS (w/v), 25 μl CHCl3 and disrupted at high speed for 10 sec. Thirty microliters of a 4 mg/ml ONPG solution was added and the mixture incubated for 2-5 min at 30° C. The reaction was stopped by adding 75 μl of 1M NaCO3, the cell debris removed by centrifugation and the A420 was determined. Beta-galactosidase units were determined using the following formula (A420/(A600 of 1/10 dilution of cells×volume of culture×time of incubation))×1,000. To examine expression levels of FKBP52 and ARA9 in yeast, we performed western blot analysis on cell extracts as described previously (Hogenesch et al., J. Biol. Chem. 272: 8581-8593, 1997).
ARA9 enhances ligand responsiveness of AHR: Given the sequence similarities between ARA9 and FKBP52, we asked if either protein could influence AHR signaling in vivo. To this end, we employed a LexA-AHR chimera and a LexA-operator-driven β-galactosidase reporter gene in the yeast S. cerevisiae (Carver et al., 1994, supra). Beta-napthoflavone dose-response curves were constructed for the LexA-AHR in the presence and absence of ARA9 (FIG. 5).
ARA3 was a candidate for a novel regulator of AHR signaling because of its ligand-dependent association with AHR in the two-hybrid screen. The influence of ARA3 on AHR signaling was investigated to determine modifier status. To accomplish this, an ARA3 cDNA (lacking the heterologous TAD from the two-hybrid clone, TAD-NΔ113ARA3) was expressed with LexA-NΔ166AHR in the L40 strain of yeast with increasing concentrations of β-NF.

GR-LexA chimera = GR-LexA chimera β-galactosidase reporter dose-response in yeast strain L40; type: cell-based
Experimental: as §1, with “To examine expression levels of FKBP52 and ARA9 in yeast, we performed western blot analysis on cell extracts as described previously (Hogenesch et al., J. Biol. Chem. 272: 8581-8593, 1997).” left out
Next, the specificity of ARA3 for the AHR signaling pathway in yeast was examined. […] In this system, GR is expressed as a LexA fusion protein in which the LexA binding domain replaces the GR DNA binding domain.

AHR = settings: mouse hepatoma cells overexpressing ARA9; cited from earlier work

T1 sequence (P30561 with tags, fused parts or gaps): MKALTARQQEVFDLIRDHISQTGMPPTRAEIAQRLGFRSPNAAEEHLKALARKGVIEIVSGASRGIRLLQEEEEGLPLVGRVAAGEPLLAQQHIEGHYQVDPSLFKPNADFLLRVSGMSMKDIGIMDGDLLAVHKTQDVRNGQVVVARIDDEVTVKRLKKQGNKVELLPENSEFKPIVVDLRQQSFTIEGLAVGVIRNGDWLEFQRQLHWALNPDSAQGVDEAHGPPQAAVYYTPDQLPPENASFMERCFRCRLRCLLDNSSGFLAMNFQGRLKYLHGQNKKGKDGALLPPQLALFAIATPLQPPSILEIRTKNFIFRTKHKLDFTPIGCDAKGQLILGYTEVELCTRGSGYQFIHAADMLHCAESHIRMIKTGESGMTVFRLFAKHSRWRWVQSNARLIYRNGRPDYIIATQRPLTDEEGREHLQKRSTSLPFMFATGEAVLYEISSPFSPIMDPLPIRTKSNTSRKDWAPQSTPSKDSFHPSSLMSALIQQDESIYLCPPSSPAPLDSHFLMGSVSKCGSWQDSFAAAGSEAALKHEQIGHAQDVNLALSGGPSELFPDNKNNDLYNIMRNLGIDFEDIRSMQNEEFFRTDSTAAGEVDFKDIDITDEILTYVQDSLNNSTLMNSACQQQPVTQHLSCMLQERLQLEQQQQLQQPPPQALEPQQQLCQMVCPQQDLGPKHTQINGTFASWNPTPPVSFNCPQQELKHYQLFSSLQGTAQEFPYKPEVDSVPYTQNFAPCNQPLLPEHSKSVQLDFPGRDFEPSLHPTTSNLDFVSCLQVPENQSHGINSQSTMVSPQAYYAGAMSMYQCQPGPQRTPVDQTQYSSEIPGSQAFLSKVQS
T1 sequence (P15108 whole entry partner): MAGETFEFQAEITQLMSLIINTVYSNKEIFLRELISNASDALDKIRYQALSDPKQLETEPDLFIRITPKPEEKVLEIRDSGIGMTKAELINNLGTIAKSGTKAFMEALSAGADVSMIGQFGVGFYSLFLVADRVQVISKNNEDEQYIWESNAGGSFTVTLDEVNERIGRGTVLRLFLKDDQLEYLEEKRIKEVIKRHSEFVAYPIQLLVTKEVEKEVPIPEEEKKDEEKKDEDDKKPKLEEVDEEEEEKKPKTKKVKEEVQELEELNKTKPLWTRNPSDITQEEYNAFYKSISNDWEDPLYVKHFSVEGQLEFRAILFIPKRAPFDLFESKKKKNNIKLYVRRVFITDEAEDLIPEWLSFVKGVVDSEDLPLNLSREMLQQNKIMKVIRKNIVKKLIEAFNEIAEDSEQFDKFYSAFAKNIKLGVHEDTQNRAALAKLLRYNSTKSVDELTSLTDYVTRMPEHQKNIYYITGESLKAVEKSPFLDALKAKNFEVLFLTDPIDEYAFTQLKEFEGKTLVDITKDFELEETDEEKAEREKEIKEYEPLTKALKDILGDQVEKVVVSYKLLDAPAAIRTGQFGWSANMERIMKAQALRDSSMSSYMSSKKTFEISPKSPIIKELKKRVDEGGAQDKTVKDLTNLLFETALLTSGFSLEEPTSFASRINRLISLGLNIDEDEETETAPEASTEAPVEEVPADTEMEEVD

## O=c1cc(-c2ccccc2)oc2ccc3ccccc3c12 [βNF, Beta-napthoflavone]
LexA-AHR chimera; co-expression of ARA3 (NΔ113ARA3) with LexA-NΔ166AHR
  increase of maximal response of AHR by ARA3: four-fold
LexA-AHR chimera; co-expression of ARA9 versus absence
  increase of maximal response in the presence of ARA9: approximately 2.5 fold
LexA-AHR chimera; co-expression of ARA9 versus absence, β-galactosidase, ONPG assay
  decrease of EC50 when ARA9 was present: approximately 5 fold
LexA-AHR chimera; co-expression of FKBP52
  shift in AHR dose-response elicited by FKBP52: could not be elicited
LexA-AHR chimera; co-expression of NΔ113ARA3 with LexA-NΔ166AHR
  shift of dose-response curve by ARA3: shifted the curve to the left

## C[C@]12CC[C@H]3[C@@H](CCC4=CC(=O)CC[C@@]43C)[C@@H]1CC[C@@H]2C(=O)CO [deoxycorticosterone]
GR-LexA chimera; co-expression of ARA3 with NlxC-GR
  alteration of signaling profile of GR by ARA3: did not alter the signaling profile
GR-LexA chimera; co-expression of ARA9 or FKBP52
  alteration of response of GR-LexA chimera by ARA9 or FKBP52: nor could either factor alter the response

## Clc1cc2c(cc1Cl)Oc1cc(Cl)c(Cl)cc1O2 [TCDD, 2,3,7,8-tetrachlorodibenzo-p-dioxin]
AHR
  increase of response of the system on overexpression of ARA9: 2-3 fold
